# Measurements: patent US9303019B2, “Amino-pyrroline derivatives, and use thereof in the prevention and/or treatment of metabolic syndrome” (UNIVERSITE DE STRASBOURG, priority 2012, dated 2016)
# Columns and labels:
# I1 receptor = I1 receptor (Homo sapiens, UniProt Q9Y2I1); test: Specific binding assay of the I1 receptor on human platelets with [125I]LNP 911
# Procedure: Binding assays were performed at 37° C. using [^125I]LNP 911 as radioligand following the general procedure described but adapted to washed whole platelets (Greney, H.; Urosevic, D.; Schann, S.; Dupuy, L.; Bruban, V.; Ehrhardt, J,-D.; Bousquet, P.; Dontenwill, M. [^125I]2-(2-Chloro-4-iodo-phenylamino)-5-methyl-pyrroline (LNP911), a High-Affinity Radioligand Selective for I1 Imidazoline Receptors. Mol. Pharmacol. 2002, 62, 181-191).
# Incubation was initiated through the addition of 900 to 950 μl of platelet suspension at a concentration of 500000/μl in a final volume of 1 ml Tyrode albumin and was performed at 37° C. for 5 min (equilibrium conditions). The competitive assays were conducted using a single concentration of radioligand ([…], 200 000 cpm), in the presence of increasing concentrations of suitable non-labelled ligand. Non-specific binding was determined by the binding of [^125I]LNP 911 in the presence of 100 nM of non-labelled LNP 911 and represented about 10% of total radioactivity when […] of [^125I]LNP 911 were used.
# The reaction was halted by rapid vacuum filtration through GF/C fibre glass filters followed by five rapid washings of the filters with 3 ml of ice-cold Tyrode ([…], pH 7.35). Radioactivity was measured using a gamma counter (Wallac 1410).
# (§1) The competitive assays were analyzed by non-linear regression using the GraphPad programme.
# (§2) Ki values were determined using the method described by Cheng and Prussof (Cheng, Y. C.; Prusoff, W. H. Relationship between the Inhibition Constant (Ki) and the Concentration of Inhibitor which causes 50 percent Inhibition (I50) of an Enzymatic Reaction. Biochem. Pharmacol. 1973, 22, 3099-3108).
# Sprague-Dawley rats = test: Acute i.v. treatment: renal sympathetic nerve activity and hemodynamic parameters in anesthetized rats; assay type: in vivo, rat; conditions: 10 mg/kg i.v.
# Procedure: Male Sprague-Dawley rats (10 weeks; Laboratoires Charles River, L'Arbresle, France) were anesthetized with urethane (1.5 g/kg i.p., supplemented with 0.1 g/kg i.v. if necessary) and placed on a hot blanket to maintain rectal temperature at 37° C.
# The left renal nerve was carefully isolated and a major branch of the nerve was placed on a bipolar platinum-iridium electrode insulated with silicone gel (604A and B; Wacker Chemie, Munich, Germany). Throughout the experiment the rat was ventilated by means of a tracheal cannula (7-8 ml/kg×72 cycles/min) with a mixture of oxygen and air (˜8%-20%).
# Arterial pressure was measured by connecting the arterial catheter to a pressure transducer (TNF-R; Ohmeda, Bilthoven, Holland) coupled to an amplifier (model 13-4615-52; Gould, Cleveland, Ohio).
# Renal sympathetic nerve activity (RSNA) was amplified (×50,000), the pass-band filtered (300-3000 Hz; Model P-511J; Grass, Quincy, Mass.) and rectified with a home-built analogue rectifier including a low frequency filter with a cut-off frequency of 150 Hz.
# The 2 parameters were continuously recorded using a computer equipped with an analogue-digital converter (model AT-MIO-16; National Instruments, Austin, Tex.) and LabVIEW 5.1 software (National Instruments).
# Arterial pressure and RSNA were recorded before (baseline) and after administering compound 1 (10 mg/kg, i.v.). At the end of the recording session, chlorisondamine, a ganglionic blocker, was administered (2.5 mg/kg, i.v.) to evaluate the level of background noise which was then subtracted from all RSNA data for subsequent analyses. At the end of the experiment, the rats were euthanized with an intravenous overdose of sodium pentobarbital.
# SHHF rats = test: Chronic treatment: plasma biochemical parameters in SHHF rats; assay type: in vivo, rat; conditions: 20 mg/kg/d, 12 weeks
# Procedure: Male SHHF rats (spontaneously hypertensive, heart failure) aged 12 weeks were used for this study (Charles River breeding centre, L'Arbresle, France).
# Compound 1 was administered in the drinking water for 12 weeks at a dose of 20 mg/kg/d (n=17). Water consumption was regularly measured to adjust the concentration of compound 1. Non-treated control SHHF rats had access to normal water (n=10).
# Body weight, water and food intake were measured every day. After a treatment time of 12 weeks, blood samples were taken. Three days later, arterial pressure and heart rate were recorded and a glucose tolerance test was performed.
# After a treatment time of 12 weeks, blood samples were obtained from the caudal vein of anesthetized rats (2.5% isoflurane, Abbott, Rungis, France) after a fasting time of 18 h.
# The blood were centrifuged for 15 minutes at 2000 g and the plasma was frozen to −80° C. until assays of glucose, total cholesterol, HDL and LDL cholesterol and fatty acids. These assays were performed at the following centre: Plateau Technique Biologique des Hôpitaux Universitaires de Strasbourg (Advia 2400, Bayer HealthCare).
# Insulin, leptin, adiponectin and glucagon were assayed using ELISA kits (insulin: Mercodia, Uppsala, Sweden; leptin: Yanaihara Institute Inc., Shizuoka, Japan; adiponectin: B-Bridge International, Mountain View, USA; glucagon: Gentaur, Kampenhout, Belgium) following the supplier's recommendations.
# α2-adrenergic receptors = test: Binding assay of the α2-adrenergic receptors on CHO cell membranes with [3H]RX821002; set-up: species or system human
# Procedure: These membranes (30 μg proteins/ml for CHO-hα2A and CHO-hα2B, 100 μg protein/ml for CHO-hα2C) were incubated for 60 min at ambient temperature in binding buffer (33 mM Tris-HCl, 1 mM EDTA, pH 7.5) in a final volume of 500 μL containing 0.8 or 1 or 2 nM [^3H]RX821002 respectively for the adrenergic receptors hα2A, hα2B and hα2C.
# Incubation was halted by rapid vacuum filtration through GF/C glass fibre filters followed by three successive washings in ice-cold binding buffer.
# Non-specific binding was determined using 10 μM phentolamine.
# as §1, §2
# Sequence of I1 receptor (Q9Y2I1 2-1504 limits assumed): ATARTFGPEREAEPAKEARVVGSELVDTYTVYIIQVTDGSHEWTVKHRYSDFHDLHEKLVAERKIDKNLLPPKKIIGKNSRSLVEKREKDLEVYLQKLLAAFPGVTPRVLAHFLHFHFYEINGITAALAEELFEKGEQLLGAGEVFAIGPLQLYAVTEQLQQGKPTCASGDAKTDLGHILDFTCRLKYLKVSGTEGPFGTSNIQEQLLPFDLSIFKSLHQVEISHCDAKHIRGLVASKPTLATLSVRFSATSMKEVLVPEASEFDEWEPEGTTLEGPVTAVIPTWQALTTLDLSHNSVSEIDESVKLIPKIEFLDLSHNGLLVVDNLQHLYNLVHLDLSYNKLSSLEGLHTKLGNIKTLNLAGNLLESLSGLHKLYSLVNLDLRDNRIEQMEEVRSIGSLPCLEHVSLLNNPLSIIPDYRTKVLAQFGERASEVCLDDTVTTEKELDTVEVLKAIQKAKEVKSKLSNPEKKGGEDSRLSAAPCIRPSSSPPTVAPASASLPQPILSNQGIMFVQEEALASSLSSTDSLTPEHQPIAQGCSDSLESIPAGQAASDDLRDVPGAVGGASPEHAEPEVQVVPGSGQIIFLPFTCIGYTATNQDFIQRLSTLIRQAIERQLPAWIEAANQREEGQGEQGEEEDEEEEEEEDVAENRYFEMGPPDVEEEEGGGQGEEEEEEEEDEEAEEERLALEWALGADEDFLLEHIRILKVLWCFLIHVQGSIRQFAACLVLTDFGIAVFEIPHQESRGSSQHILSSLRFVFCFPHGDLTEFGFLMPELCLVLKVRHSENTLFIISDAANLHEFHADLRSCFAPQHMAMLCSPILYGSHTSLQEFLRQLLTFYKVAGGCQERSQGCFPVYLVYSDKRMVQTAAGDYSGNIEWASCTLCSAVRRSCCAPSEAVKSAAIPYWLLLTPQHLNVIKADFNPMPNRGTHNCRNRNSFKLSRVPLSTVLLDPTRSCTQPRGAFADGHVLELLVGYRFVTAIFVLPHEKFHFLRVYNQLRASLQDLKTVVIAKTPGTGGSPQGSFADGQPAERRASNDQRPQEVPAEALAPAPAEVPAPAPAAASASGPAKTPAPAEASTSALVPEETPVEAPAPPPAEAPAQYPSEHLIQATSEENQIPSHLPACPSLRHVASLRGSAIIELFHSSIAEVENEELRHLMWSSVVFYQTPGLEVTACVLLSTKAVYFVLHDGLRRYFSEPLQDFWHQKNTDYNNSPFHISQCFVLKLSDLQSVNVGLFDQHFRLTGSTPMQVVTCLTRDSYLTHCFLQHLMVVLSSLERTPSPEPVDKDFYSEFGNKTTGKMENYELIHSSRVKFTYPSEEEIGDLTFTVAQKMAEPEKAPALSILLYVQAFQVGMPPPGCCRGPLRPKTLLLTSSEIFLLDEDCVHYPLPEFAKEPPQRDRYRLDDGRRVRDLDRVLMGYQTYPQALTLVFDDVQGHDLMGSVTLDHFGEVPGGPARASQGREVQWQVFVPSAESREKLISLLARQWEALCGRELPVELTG
smiles,measurement,setting,value
"Cc1c(Cl)cccc1NC1=NCC(C)C1.Cl (stereo not shown) [Compound 1, (3-Chloro-2-methyl-phenyl)-(4-methyl-4,5-dihydro-3H-pyrrol-2-yl)-amine hydrochloride]",Ki,I1 receptor,8.1 nM
same,"duration of the reduction in renal sympathetic activity, arterial pressure and heart rate",Sprague-Dawley rats,more than one hour
same,reduction in renal sympathetic activity,Sprague-Dawley rats; urethane-anesthetized rats,50%
same,diastolic arterial pressure (DAP),Sprague-Dawley rats; vs. 83.2±4 baseline,58.6±3.4 mmHg
same,mean arterial pressure (MAP),Sprague-Dawley rats; vs. 108.±3.4 baseline,77.4±3.6 mmHg
same,systolic arterial pressure (SAP),Sprague-Dawley rats; vs. 141.7±2.3 baseline,105.3±3 mmHg
same,heart rate,Sprague-Dawley rats; vs. 331.4±14 baseline,288.4±10.3 bpm
same,fasting glycaemia,SHHF rats,not affected
same,free fatty acids,SHHF rats,not affected
same,total plasma cholesterol,"SHHF rats; fasting 18 h, control 3.8±0.18",2.7 ± 0.09 mmol/L
same,plasma triglycerides,"SHHF rats; fasting 18 h, control 4.59±0.23",3.8 ± 0.25 mmol/L
same,plasma adiponectin,SHHF rats; control 5.54±0.14,10.6 ± 0.52 µg/mL
same,fasting plasma insulin,SHHF rats; control 46.8±3.7,15.2 ± 2 ng/mL
same,HOMA-IR index,SHHF rats; control 534±38,110±14
same,Ki,α2-adrenergic receptors; CHO cells,> 10000 nM
same,displacement at the α2-adrenergic receptor,α2-adrenergic receptors; concentration of 10^−5 M,No significant displacement
